The text below walks through data of ChEMBL document CHEMBL1629430, “2'-deoxy-2'-α-fluoro-2'-β-C-methyl 3',5'-cyclic phosphate nucleotide prodrug analogs as inhibitors of HCV NS5B polymerase: discovery of PSI-352938” (Bioorg Med Chem Lett, 2010).

Series [1] is described as follows: Cytotoxicity against human HuH7 cells. Type of series: cell-based, Huh-7.
Series [2] addresses RNA-directed RNA polymerase (Hepacivirus hominis, UniProt O39930). The series is described as follows: Inhibition of HCV NS5B polymerase.
In series [3] the test system is Hepatitis C virus. Nature of the series: Antiviral activity against Hepatitis C virus -infected in human HuH7 cells. The series is classed as functional, Hepacivirus hominis, Huh-7.
Series [4] is described as follows: Cytotoxicity against human BxPC3 cells. The series is classed as cell-based, BXPC-3.
The test system of series [5] is Hepatitis C virus. Nature of the series: Antiviral activity against Hepatitis C virus harboring NS5B S282T mutant -infected in human HuH7 cells. Type of series: functional, Hepacivirus hominis, Huh-7.
Series [6] is described as follows: Half life of the compound in simulated intestinal fluid. Type of series: physicochemical. The following applies: for half-life: simulated intestinal fluid, read-out: Stability.
Series [7] in a line: Mitochondrial toxicity in human HepG2 cells. The series is classed as cell-based.
The test system of series [8] is Hepatitis C virus. The series is described as follows: Antiviral activity against wild-type Hepatitis C virus -infected in human HuH7 cells. Type of series: functional, Hepacivirus hominis, Huh-7.
The nature of series [9]: Half life in human liver S9 fraction. The settings on record: read-out: Stability (converted). Type of series: ADME, subcellular.
Series [10] in a line: Cytotoxicity against human CEM cells. The series is classed as cell-based. The following applies: CEM cells (CCRF-CEM).
Series [11] concerns Rattus norvegicus. Nature of the series: AUC (0 to 24 hrs) in rat liver assessed as 2'-Deoxy-2'-alpha-F-2'-beta-C-methyl guanosine triphosphate level at 50 mg/kg, po. Type of series: ADME, organism-based. Also on record: time < 24 hr, dose 50 mg/kg, route oral. The settings on record: in vivo.
Series [12] can be described thus: Half life of the compound in simulated gastrointestinal fluid. The series is classed as physicochemical. The settings on record: read-out: Stability (converted).
Series [13] can be described thus: Half life in human plasma. Type of series: ADME, cell-free. The settings on record: read-out: Stability (converted).
Series [14] can be described thus: Mitochondrial toxicity in human CEM cells. Type of series: cell-based. The settings on record: CEM cells (CCRF-CEM).
The test system of a further series is Liver. The series is described as follows: AUC (0 to 24 hrs) in rat liver. Type of series: ADME, tissue-based. Also noted: time < 24 hr. The settings on record: in vivo.
The nature of series [15]: Drug level in Hepatitis C virus -infected human HuH7 cells assessed as cellular triphosphate level at 100 uM after 72 hrs by HPLC method. The following applies: huh-7, 72 h. The series is classed as ADME, cell-based.
In a further series the test system is Hepatocyte. Nature of the series: Drug level in human hepatocytes assessed as cellular triphosphate level at 100 uM after 72 hrs by HPLC method. The series is classed as ADME, cell-based.
Series [16] is described as follows: Cytotoxicity against human HepG2 cells. The series is classed as cell-based.
The test system of series [17] is Rattus norvegicus. The series is described as follows: Cmax in rat liver assessed as 2'-Deoxy-2'-alpha-F-2'-beta-C-methyl guanosine triphosphate level at 50 mg/kg, po. Also noted: dose 50 mg/kg, route oral. The series is classed as ADME, organism-based. The settings on record: in vivo.

Usually CC50 stands for the concentration giving 50% cytotoxicity. In general, IC50 refers to the point on the concentration scale where inhibition reaches its midpoint. Usually EC90 stands for the concentration needed for an effect of 90%. Higher therefore signals weaker potency. Usually Cmax stands for the maximum level reached in the sampled fluid or tissue.

Chain of RNA-directed RNA polymerase (O39930 whole entry): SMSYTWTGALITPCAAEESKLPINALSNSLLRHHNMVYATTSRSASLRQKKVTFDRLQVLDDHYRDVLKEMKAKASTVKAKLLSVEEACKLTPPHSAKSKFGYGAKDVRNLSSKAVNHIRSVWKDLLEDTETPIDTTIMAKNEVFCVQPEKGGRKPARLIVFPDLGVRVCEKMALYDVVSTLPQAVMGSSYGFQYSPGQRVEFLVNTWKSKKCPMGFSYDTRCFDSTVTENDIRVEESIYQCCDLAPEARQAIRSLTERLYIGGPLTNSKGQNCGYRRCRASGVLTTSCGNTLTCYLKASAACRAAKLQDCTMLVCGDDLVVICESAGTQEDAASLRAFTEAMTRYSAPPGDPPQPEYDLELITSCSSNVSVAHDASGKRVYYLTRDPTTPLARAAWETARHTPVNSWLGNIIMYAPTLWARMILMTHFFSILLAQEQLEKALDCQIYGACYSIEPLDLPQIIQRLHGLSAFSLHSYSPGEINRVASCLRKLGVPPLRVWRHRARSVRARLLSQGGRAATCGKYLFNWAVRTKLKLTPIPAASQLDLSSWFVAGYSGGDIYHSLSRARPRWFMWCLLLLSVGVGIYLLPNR

For `C[C@@]1(F)[C@H](O)[C@@H](COP(=O)(O)OP(=O)(O)OP(=O)(O)O)O[C@H]1n1cnc2c(=O)[nH]c(N)nc21` [PSI-352666], in [1], the CC50 was greater than 100 µM. Further, in series [2], the IC50 turned out to be 5.94 µM.

In turn, `COP1(=O)OC[C@H]2O[C@@H](n3cnc4c(OCc5ccccc5)nc(N)nc43)[C@](C)(F)[C@@H]2O1` (stereo partly drawn) yielded an EC90 with Hepatitis C virus [3] (Hepatitis C virus, Huh-7) of 5.05 µM.

`CC(C)O[P@@]1(=O)OC[C@H]2O[C@@H](n3cnc4c(N5CCC5)nc(N)nc43)[C@](C)(F)[C@@H]2O1` came in with an EC90 with Hepatitis C virus [3] (Hepatitis C virus, Huh-7) of 18.6 µM.

In the series with Hepatitis C virus [3] (Hepatitis C virus, Huh-7), `CCCCNc1nc(N)nc2c1ncn2[C@@H]1O[C@@H]2COP(=O)(OCC)O[C@H]2[C@@]1(C)F` (single isomer, unassigned) registered an EC90 of 48.1 µM.

For the molecule `CCCOc1nc(N)nc2c1ncn2[C@@H]1O[C@@H]2CO[P@](=O)(OCCC)O[C@H]2[C@@]1(C)F` (stereo in doubt; 26a), the EC90 in the series on Hepatitis C virus [3] is 23.8 µM.

In the case of `CCCOc1nc(N)nc2c1ncn2[C@@H]1O[C@@H]2COP(=O)(OC)O[C@H]2[C@@]1(C)F` (stereo partly drawn), in [1], the CC50 is greater than 30 µM. Besides, the EC90 in the series on Hepatitis C virus [3] (Hepatitis C virus, Huh-7) amounted to 0.83 µM.

In the series with Hepatitis C virus [3] (Hepatitis C virus, Huh-7), `C[C@@]1(F)[C@@H]2O[P@@](=O)(Oc3ccccc3)OC[C@H]2O[C@H]1n1cnc2c(N3CCC3)nc(N)nc21` showed an EC90 of 7.7 µM.

In the case of `CCOc1nc(N)nc2c1ncn2[C@@H]1O[C@@H]2CO[P@](=O)(OC(C)C)O[C@H]2[C@@]1(C)F` (stereo in doubt; 24a), the CC50 in series [4], in series [7], in [1], in series [10], in series [14] and in [16] was greater than 100 µM each time. Moreover, the EC90 in the series with Hepatitis C virus [5] (Hepatitis C virus, Huh-7) turned out to be 1610 nM; with Hepatitis C virus [8] (Hepatitis C virus, Huh-7) it was 1370 nM; in the series on Hepatitis C virus [3] (Hepatitis C virus, Huh-7) it was 1.37 µM. Further, the half-life was greater than 1200 min in series [6], greater than 1440 min in series [9], greater than 1200 min in series [12] and greater than 1440 min in series [13]. In addition, the AUC in the series with Rattus norvegicus [11] worked out at 41893 ng·h/g; in the series with Liver it was 13234 ng·h/g. The Drug uptake in series [15] amounted to 0.41 mM; with Hepatocyte, 0.59 mM.

For `CO[P@@]1(=O)OC[C@H]2O[C@@H](n3cnc4c(O)nc(N)nc43)[C@](C)(F)[C@@H]2O1`, in series [1], the CC50 is greater than 65 µM. Also, the EC90 in the series on Hepatitis C virus [3] (Hepatitis C virus, Huh-7) was found to be 11.8 µM.

As to `CCOc1nc(N)nc2c1ncn2[C@@H]1O[C@@H]2CO[P@](=O)(OC(C)C)O[C@H]2[C@@]1(C)F` (stereo in doubt; 24b), the EC90 with Hepatitis C virus [5] turned out to be 860 nM; in the series on Hepatitis C virus [8], 690 nM; in the series on Hepatitis C virus [3], 0.69 µM. This molecule came in with a Stability in series [6] (simulated gi fluid) of 18 h.

`CCOc1nc(N)nc2c1ncn2[C@@H]1O[C@@H]2COP(=O)(Oc3ccccc3)O[C@H]2[C@@]1(C)F` (stereo partly drawn): the EC90 in the series with Hepatitis C virus [3] (Hepatitis C virus, Huh-7) is 1.72 µM.

Molecule `CCCCNc1nc(N)nc2c1ncn2[C@@H]1O[C@@H]2COP(=O)(Oc3ccccc3)O[C@H]2[C@@]1(C)F` (single isomer, unassigned) showed an EC90 in the series on Hepatitis C virus [3] (Hepatitis C virus, Huh-7) of 4.76 µM.

For `CCCNc1nc(N)nc2c1ncn2[C@@H]1O[C@@H]2COP(=O)(OC)O[C@H]2[C@@]1(C)F` (stereo partly drawn), the CC50 is greater than 100 µM in series [4]; 14 µM in series [7]; greater than 30 µM in series [1]; greater than 100 µM in [10]; greater than 100 µM in [14]; greater than 100 µM in series [16]. The EC90 in the series with Hepatitis C virus [5] (Hepatitis C virus, Huh-7) came out at 3080 nM; in the series with Hepatitis C virus [8] (Hepatitis C virus, Huh-7), 920 nM; in the series on Hepatitis C virus [3] (Hepatitis C virus, Huh-7) it was 0.92 µM. Moreover, the half-life is greater than 1200 min in series [6], greater than 1440 min in [9], 240 min in series [12] and 942 min in series [13].

For `CCCCNc1nc(N)nc2c1ncn2[C@@H]1O[C@@H]2COP(=O)(OC(C)C)O[C@H]2[C@@]1(C)F` (single isomer, unassigned), in the series on Hepatitis C virus [3] (Hepatitis C virus, Huh-7), the 90% effect level (EC90) was put at 9.28 µM.

In turn, `COP1(=O)OC[C@H]2O[C@@H](n3cnc4c(NC5CCCC5)nc(N)nc43)[C@](C)(F)[C@@H]2O1` (stereo partly drawn) showed an EC90 in the series on Hepatitis C virus [3] (Hepatitis C virus, Huh-7) of 7.2 µM.

In the series on Hepatitis C virus [3] (Hepatitis C virus, Huh-7), `C[C@@]1(F)[C@H](O)[C@@H](CO)O[C@H]1n1cnc2c(O)nc(N)nc21` showed an EC90 of 69 µM.

For the molecule `CCOc1nc(N)nc2c1ncn2[C@@H]1O[C@@H]2COP(=O)(OC)O[C@H]2[C@@]1(C)F` (stereo partly drawn), the CC50 was greater than 100 µM in [4]; greater than 100 µM in series [7]; greater than 30 µM in series [1]; greater than 100 µM in series [10]; greater than 100 µM in series [14]; 95 µM in [16]. Further, the EC90 in the series with Hepatitis C virus [5] (Hepatitis C virus, Huh-7) came to 400 nM; in the series on Hepatitis C virus [8] (Hepatitis C virus, Huh-7) it was 410 nM; in the series with Hepatitis C virus [3] (Hepatitis C virus, Huh-7) it was 0.41 µM. Also, the half-life is greater than 1200 min in series [6], greater than 1440 min in [9], greater than 1200 min in series [12] and 533 min in [13]. The figures for the AUC with Rattus norvegicus [11] and with Liver were 4090 ng·h/g and 8310 ng·h/g, respectively. In the series on Rattus norvegicus [17], the Cmax was 613 ng/g. For the same molecule, the Drug uptake in [15] was 0.08 mM; with Hepatocyte, 0.12 mM.

Turning to `C[C@@]1(F)[C@@H]2O[P@@](=O)(OC3CCC3)OC[C@H]2O[C@H]1n1cnc2c(N3CCC3)nc(N)nc21`, the EC90 with Hepatitis C virus [3] (Hepatitis C virus, Huh-7) was found to be 7.3 µM.

Consider `CCCOc1nc(N)nc2c1ncn2[C@@H]1O[C@@H]2CO[P@](=O)(OCCC)O[C@H]2[C@@]1(C)F` (stereo in doubt; 26b), for which the CC50 in [1] is greater than 11 µM. Moreover, the EC90 in the series on Hepatitis C virus [3] is 5.27 µM.

Consider `COP1(=O)OC[C@H]2O[C@@H](n3cnc4c(N5CCC5)nc(N)nc43)[C@](C)(F)[C@@H]2O1` (stereo partly drawn), for which the CC50 in series [4] is greater than 100 µM; in series [7] it was greater than 100 µM; in [1] it was greater than 30 µM; in series [10], greater than 100 µM; in [14], greater than 100 µM; in [16] it was greater than 100 µM. Besides, the EC90 in the series on Hepatitis C virus [5] (Hepatitis C virus, Huh-7) came out at 1530 nM; with Hepatitis C virus [8] (Hepatitis C virus, Huh-7), 980 nM; with Hepatitis C virus [3] (Hepatitis C virus, Huh-7), 0.98 µM. The half-life is greater than 1200 min in series [6], 152 min in series [9], greater than 1200 min in [12] and 500 min in series [13].

In the case of `CC(C)C(=O)OC[C@H]1O[C@@H](n2ccc(N)nc2=O)[C@](C)(F)[C@@H]1OC(=O)C(C)C` [MERICITABINE], the CC50 in series [1] was greater than 100 µM. Further, the EC90 with Hepatitis C virus [3] (Hepatitis C virus, Huh-7) was found to be 3.9 µM.

Turning to `COP1(=O)OC[C@H]2O[C@@H](n3cnc4c(NC5CCC5)nc(N)nc43)[C@](C)(F)[C@@H]2O1` (stereo partly drawn), in the series with Hepatitis C virus [3] (Hepatitis C virus, Huh-7), the EC90 was determined as 1.56 µM.

Turning to `CCO[P@@]1(=O)OC[C@H]2O[C@@H](n3cnc4c(N5CCC5)nc(N)nc43)[C@](C)(F)[C@@H]2O1`, the EC90 in the series with Hepatitis C virus [3] (Hepatitis C virus, Huh-7) is 69.2 µM.
